Data taken from ChEMBL document CHEMBL2413072, “Synthesis and in vitro anticancer studies of novel C-2 arylidene congeners of lantadenes” (2013).

How the values were obtained:
Assay type in all cases: functional
[1] = Growth inhibition of human HCC2998 cells assessed as cell growth at 10^-6 M by sulforhodamine B assay; settings: HCC 2998, read-out: Activity
CAKI-1 = test: Growth inhibition of human CAKI-1 cells assessed as cell growth at 10^-7 M by sulforhodamine B assay; settings: read-out: Activity
SF-539 [2] = test: Growth inhibition of human SF539 cells by sulforhodamine B assay
UO-31 = test: Growth inhibition of human UO31 cells assessed as cell growth at 10^-6 M by sulforhodamine B assay; settings: read-out: Activity
NCI-H226 [3] = test: Growth inhibition of human NCI-H226 cells assessed as cell growth at 10^-7 M by sulforhodamine B assay; settings: read-out: Activity
HL-60(TB) = test: Growth inhibition of human HL-60(TB) cells assessed as cell growth at 10^-7 M by sulforhodamine B assay; settings: read-out: Activity
MCF7 = test: Growth inhibition of human MCF7 cells assessed as cell growth at 10^-4 M by sulforhodamine B assay; settings: read-out: Activity
COLO 205 = test: Growth inhibition of human COLO205 cells assessed as cell growth at 10^-8 M by sulforhodamine B assay; settings: read-out: Activity
Malme-3M = test: Growth inhibition of human MALME-3M cells by sulforhodamine B assay
SW-620 = test: Growth inhibition of human SW620 cells assessed as cell growth at 10^-4 M by sulforhodamine B assay; settings: read-out: Activity
NCI-H322M [4] = test: Growth inhibition of human NCI-H322M cells assessed as cell growth at 10^-7 M by sulforhodamine B assay; settings: read-out: Activity
NCI-H226 [5] = test: Growth inhibition of human NCI-H226 cells assessed as cell growth at 10^-6 M by sulforhodamine B assay; settings: read-out: Activity
ACHN [6] = test: Growth inhibition of human ACHN cells assessed as cell growth at 10^-8 M by sulforhodamine B assay; settings: read-out: Activity
SK-MEL-2 [7] = test: Growth inhibition of human SK-MEL-2 cells assessed as cell growth at 10^-6 M by sulforhodamine B assay; settings: read-out: Activity
MDA-MB-231 [8] = test: Growth inhibition of human MDA-MB-231 cells assessed as cell growth at 10^-4 M by sulforhodamine B assay; settings: read-out: Activity
SK-MEL-28 [9] = test: Growth inhibition of human SK-MEL-28 cells assessed as cell growth at 10^-7 M by sulforhodamine B assay; settings: read-out: Activity
SN12C = test: Growth inhibition of human SN12C cells by sulforhodamine B assay
SF-539 [10] = test: Growth inhibition of human SF539 cells assessed as cell growth at 10^-8 M by sulforhodamine B assay; settings: read-out: Activity
NCI-H322M [11] = test: Growth inhibition of human NCI-H322M cells assessed as cell growth at 10^-8 M by sulforhodamine B assay; settings: read-out: Activity
A549 = test: Growth inhibition of human A549/ATCC cells by sulforhodamine B assay
MDA-MB-468 = test: Growth inhibition of human MDA-MB-468 cells assessed as cell growth at 10^-8 M by sulforhodamine B assay; settings: read-out: Activity
NCI-H23 = test: Growth inhibition of human NCI-H23 cells assessed as cell growth at 10^-4 M by sulforhodamine B assay; settings: read-out: Activity
MDA-MB-231 [12] = test: Growth inhibition of human MDA-MB-231 cells assessed as cell growth at 10^-7 M by sulforhodamine B assay; settings: read-out: Activity
DU-145 = test: Growth inhibition of human DU145 cells assessed as cell growth at 10^-4 M by sulforhodamine B assay; settings: read-out: Activity
[13] = Growth inhibition of human HCC2998 cells by sulforhodamine B assay
OVCAR-4 = test: Growth inhibition of human OVCAR4 cells by sulforhodamine B assay
SK-MEL-28 [14] = test: Growth inhibition of human SK-MEL-28 cells by sulforhodamine B assay
ACHN [15] = test: Growth inhibition of human ACHN cells by sulforhodamine B assay
SK-MEL-5 = test: Growth inhibition of human SK-MEL-5 cells assessed as cell growth at 10^-6 M by sulforhodamine B assay; settings: read-out: Activity
RXF 393 = test: Growth inhibition of human RXF393 cells by sulforhodamine B assay
OVCAR-3 = test: Growth inhibition of human OVCAR3 cells assessed as cell growth at 10^-6 M by sulforhodamine B assay; settings: read-out: Activity
SR = test: Growth inhibition of human SR cells by sulforhodamine B assay
OVCAR-8 = test: Growth inhibition of human OVCAR8 cells assessed as cell growth at 10^-6 M by sulforhodamine B assay; settings: read-out: Activity
OVCAR-5 = test: Growth inhibition of human OVCAR5 cells assessed as cell growth at 10^-4 M by sulforhodamine B assay; settings: read-out: Activity
A498 = test: Growth inhibition of human A498 cells assessed as cell growth at 10^-7 M by sulforhodamine B assay; settings: read-out: Activity
SF-268 = test: Growth inhibition of human SF268 cells by sulforhodamine B assay
SK-MEL-2 [16] = test: Growth inhibition of human SK-MEL-2 cells assessed as cell growth at 10^-4 M by sulforhodamine B assay; settings: read-out: Activity
[17] = read-out: LC50 (the source's name)
[18] = read-out: pLC50 (the source's name) (converted)

`CC(C)=CC(=O)O[C@@H]1CC(C)(C)C[C@H]2C3=CC[C@@H]4[C@@]5(C)CCC(=O)C(C)(C)[C@@H]5CC[C@@]4(C)[C@]3(C)CC[C@@]12C(=O)O` gave a growth at 1 µM [1] of 88%, a growth at 0.1 µM (CAKI-1) of 93% and a GI50 (SF-539 [2]; read-out: GI50) of 4.75 µM. The CC50 (SF-539 [2]; [17]) was > 100 µM, the TGI (SF-539 [2]; read-out: TGI) was 24.2 µM and the GI50 (SF-539 [2]; read-out: pGI50 (converted)) was 4.79 µM. The CC50 (SF-539 [2]; [18]) was > 100 µM, the TGI (SF-539 [2]; read-out: pTGI (converted)) was 24 µM and the growth at 1 µM (UO-31) was 82%. For the same molecule, the growth at 0.1 µM (NCI-H226 [3]) was 87%, the growth at 0.1 µM (HL-60(TB)) was 93% and the growth at 100 µM (MCF7) was 2%. The growth at 0.01 µM (COLO 205) was 106%, the GI50 (Malme-3M; read-out: GI50) was 11.4 µM and the CC50 (Malme-3M; [17]) was > 100 µM. The TGI (Malme-3M; read-out: TGI) was 81 µM, the GI50 (Malme-3M; read-out: pGI50 (converted)) was 11.5 µM and the CC50 (Malme-3M; [18]) was > 100 µM. It also gave a TGI (Malme-3M; read-out: pTGI (converted)) of 81.3 µM, a growth at 100 µM (SW-620) of -22% and a growth at 0.1 µM (NCI-H322M [4]) of 90%. The growth at 1 µM (NCI-H226 [5]) was 81%, the growth at 0.01 µM (ACHN [6]) was 97% and the growth at 1 µM (SK-MEL-2 [7]) was 85%. The growth at 100 µM (MDA-MB-231 [8]) was -64%, the growth at 0.1 µM (SK-MEL-28 [9]) was 99% and the GI50 (SN12C; read-out: GI50) was 3.12 µM. The CC50 (SN12C; [17]) was > 100 µM, the TGI (SN12C; read-out: TGI) was 21.8 µM and the GI50 (SN12C; read-out: pGI50 (converted)) was 3.09 µM. For the same molecule, the CC50 (SN12C; [18]) was > 100 µM, the TGI (SN12C; read-out: pTGI (converted)) was 21.9 µM and the growth at 0.01 µM (SF-539 [10]) was 93%. The growth at 0.01 µM (NCI-H322M [11]) was 93%, the GI50 (A549; read-out: GI50) was 0.797 µM and the CC50 (A549; [17]) was > 100 µM. For the same molecule, the TGI (A549; read-out: TGI) was 15.6 µM, the GI50 (A549; read-out: pGI50 (converted)) was 0.794 µM and the CC50 (A549; [18]) was > 100 µM. The TGI (A549; read-out: pTGI (converted)) was 15.5 µM, the growth at 0.01 µM (MDA-MB-468) was 92% and the growth at 100 µM (NCI-H23) was -10%. For the same molecule, the growth at 0.1 µM (MDA-MB-231 [12]) was 93%, the growth at 100 µM (DU-145) was -51% and the GI50 ([13]; HCC 2998, read-out: GI50) was 3.05 µM. It also gave a CC50 ([13]; HCC 2998, read-out: LC50 (the source's name)) of 58.6 µM, a TGI ([13]; HCC 2998, read-out: TGI) of 13.4 µM and a GI50 ([13]; HCC 2998, read-out: pGI50 (converted)) of 3.02 µM. It also gave a CC50 ([13]; HCC 2998, read-out: pLC50 (the source's name) (converted)) of 58.9 µM, a TGI ([13]; HCC 2998, read-out: pTGI (converted)) of 13.5 µM and a GI50 (OVCAR-4; read-out: GI50) of 5.07 µM. The CC50 (OVCAR-4; [17]) was > 100 µM, the TGI (OVCAR-4; read-out: TGI) was > 100 µM and the GI50 (OVCAR-4; read-out: pGI50 (converted)) was 5.01 µM. For the same molecule, the CC50 (OVCAR-4; [18]) was > 100 µM, the TGI (OVCAR-4; read-out: pTGI (converted)) was > 100 µM and the GI50 (SK-MEL-28 [14]; read-out: GI50) was 11.6 µM. The CC50 (SK-MEL-28 [14]; [17]) was > 100 µM, the TGI (SK-MEL-28 [14]; read-out: TGI) was > 100 µM and the GI50 (SK-MEL-28 [14]; read-out: pGI50 (converted)) was 11.7 µM. For the same molecule, the CC50 (SK-MEL-28 [14]; [18]) was > 100 µM, the TGI (SK-MEL-28 [14]; read-out: pTGI (converted)) was > 100 µM and the GI50 (ACHN [15]; read-out: GI50) was 2.99 µM. For the same molecule, the CC50 (ACHN [15]; [17]) was > 100 µM, the TGI (ACHN [15]; read-out: TGI) was 27.9 µM and the GI50 (ACHN [15]; read-out: pGI50 (converted)) was 3.02 µM. For the same molecule, the CC50 (ACHN [15]; [18]) was > 100 µM, the TGI (ACHN [15]; read-out: pTGI (converted)) was 28.2 µM and the growth at 1 µM (SK-MEL-5) was 60%. The GI50 (RXF 393; read-out: GI50) was 3.31 µM, the CC50 (RXF 393; [17]) was 63.5 µM and the TGI (RXF 393; read-out: TGI) was 16.3 µM. For the same molecule, the GI50 (RXF 393; read-out: pGI50 (converted)) was 3.31 µM, the CC50 (RXF 393; [18]) was 63.1 µM and the TGI (RXF 393; read-out: pTGI (converted)) was 16.2 µM. The growth at 1 µM (OVCAR-3) was 84%, the GI50 (SR; read-out: GI50) was 3.75 µM and the CC50 (SR; [17]) was > 100 µM. The TGI (SR; read-out: TGI) was 33.8 µM, the GI50 (SR; read-out: pGI50 (converted)) was 3.72 µM and the CC50 (SR; [18]) was > 100 µM. It also gave a TGI (SR; read-out: pTGI (converted)) of 33.9 µM, a growth at 1 µM (OVCAR-8) of 79% and a growth at 100 µM (OVCAR-5) of -39%. For the same molecule, the growth at 0.1 µM (A498) was 80%, the GI50 (SF-268; read-out: GI50) was 5.27 µM and the LC50 (SF-268; read-out: LC50) was > 100 µM. For the same molecule, the TGI (SF-268; read-out: TGI) was 29.4 µM, the GI50 (SF-268; read-out: pGI50 (converted)) was 5.25 µM and the LC50 (SF-268; read-out: pLC50 (converted)) was > 100 µM. The TGI (SF-268; read-out: pTGI (converted)) was 29.5 µM and the growth at 100 µM (SK-MEL-2 [16]) was -69%.
